Data as given in ChEMBL document CHEMBL1201862, “PubChem BioAssay data set” (2004).
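Each compound was tested at five concentrations against cells in 96-well plates for 48 hours. GI50 is the concentration that inhibits growth by half.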 The source made the active and inactive calls. Rule as the data show it: active = GI50 up to about 1.1 µM and inactive = higher.

Experiments:
Assay in all cases: NCI-60 cell line screen, 48 h
HL-60 = system: HL-60
NCI-H23 = system: NCI-H23
SK-MEL-28 = system: SK-MEL-28
CAKI-1 = system: CAKI-1
UACC-257 = system: UACC-257
786-0 = system: 786-0
SF-268 = system: SF-268
HCT-15 = system: HCT-15
SNB-19 = system: SNB-19
KM12 = system: KM12
M14 = system: M14
HCC 2998 = system: HCC 2998
K562 = system: K562
OVCAR-3 = system: OVCAR-3
EKVX = system: EKVX
NCI-H226 = system: NCI-H226
HOP-92 = system: HOP-92
KM-20L2 = system: KM-20L2
Hs-578T = system: Hs-578T
BT-549 = system: BT-549

Compound	GI50 (HL-60)	GI50 (NCI-H23)	GI50 (SK-MEL-28)	GI50 (CAKI-1)	GI50 (UACC-257)	GI50 (786-0)	GI50 (SF-268)	GI50 (HCT-15)	GI50 (SNB-19)	GI50 (KM12)	GI50 (M14)	GI50 (HCC 2998)	GI50 (K562)	GI50 (OVCAR-3)	GI50 (EKVX)	GI50 (NCI-H226)	GI50 (HOP-92)	GI50 (KM-20L2)	GI50 (Hs-578T)	GI50 (BT-549)
NC(=O)N1N=C2c3ccccc3OC[C@H]2[C@@H]1c1ccccc1	22.6 µM (inactive)	22.6 µM (inactive)	25.5 µM (inactive)	35.6 µM (inactive)	10.9 µM (inactive)	5.02 µM (inactive)	9.86 µM (inactive)	5.55 µM	31.6 µM (inactive)	9.31 µM (inactive)	2.07 µM (inactive)	10.7 µM (inactive)	14.4 µM (inactive)	20.9 µM (inactive)	35.2 µM (inactive)	22.5 µM (inactive)	13.8 µM (inactive)	23.4 µM (inactive)	–	–
Cc1nc2ccccc2c(=O)n1/N=C(\N=N\c1cc(Cl)ccc1Cl)c1ccccc1	58.5 µM (inactive)	50.7 µM (inactive)	47.2 µM (inactive)	> 57.3 µM (inactive)	17.4 µM (inactive)	74.1 µM (inactive)	58.6 µM (inactive)	31.2 µM	29 µM (inactive)	10.3 µM (inactive)	54.7 µM (inactive)	32.1 µM (inactive)	> 100 µM (inactive)	53.2 µM (inactive)	20.7 µM (inactive)	43.1 µM (inactive)	30.4 µM (inactive)	0.412 µM (active)	74 µM (inactive)	38.6 µM (inactive)
CC1SC2=NC3=C(c4ccccc4C3=O)C(c3ccc(Br)cc3)N2C1=O (centres undefined)	22.4 µM (inactive)	40.8 µM (inactive)	43 µM (inactive)	80.9 µM (inactive)	> 100 µM (inactive)	64.4 µM (inactive)	37.9 µM (inactive)	52.2 µM	38 µM (inactive)	> 100 µM (inactive)	96.4 µM (inactive)	60.8 µM (inactive)	44.6 µM (inactive)	37.2 µM (inactive)	60 µM (inactive)	23.2 µM (inactive)	29 µM (inactive)	> 100 µM (inactive)	–	–
CC(=O)Nc1ccccc1Sc1ccccc1	> 100 µM (inactive)	> 100 µM (inactive)	> 100 µM (inactive)	69.8 µM (inactive)	> 100 µM (inactive)	> 100 µM (inactive)	72.9 µM (inactive)	> 100 µM	> 100 µM (inactive)	> 100 µM (inactive)	> 100 µM (inactive)	> 100 µM (inactive)	> 100 µM (inactive)	2.6 µM (inactive)	> 100 µM (inactive)	> 100 µM (inactive)	69.8 µM (inactive)	> 100 µM (inactive)	–	–
